Source: ChEMBL document CHEMBL3301361, “Experimental in vitro DMPK and physicochemical data on a set of publicly disclosed compounds”
≈ marks a conversion by molar mass, not a printed value.

Key:
in vitro [1] = settings: SD, HW or BN, rat, plasma
physchem [2] = assay: physchem
physchem [3] = settings: pH 7.4 buffer
in vitro [4] = settings: Beagle, dog, plasma
in vitro [5] = settings: human
physchem [6] = assay: physchem; remark: listed apart in the source
in vitro [7] = settings: human, plasma
physchem [8] = settings: octan-1-ol/water, pH 7.4, LogD7.4
in vitro [9] = settings: hepatocytes
in vitro [10] = settings: human, hepatocytes

Row | pKa (physchem [6]) | fraction unbound at 5 h (in vitro [7]; PPB) | logD (physchem [8]) | Structure (SMILES) | other results
1 | – | – | – | COC(=O)C1=C(C)NC(C)=C(C(=O)OCCN(C)Cc2ccccc2)C1c1cccc([N+](=O)[O-])c1 (stereo not given) [NICARDIPINE] | fraction unbound at 5 h (in vitro [1]): 0.0039; pKa (physchem [2]): 7.26; solubility thermodynamic (physchem [3]): 7.4 µM (≈ 3.55 µg/mL); fraction unbound at 5 h (in vitro [4]): 0.004
2 | 7.1 | – | – | Nc1nc2nc(SCc3ccccc3)[nH]c(=O)c2s1 | microsomal CLint (in vitro [5]; liver microsomes): < 3 µL/min/mg
3 | 5.4 | 0.0647 | -1.33 | Cc1nnc(NS(=O)(=O)c2ccc(N)cc2)s1 [SULFAMETHIZOLE] | –
4 | 6.1 | – | – | N#Cc1cn(Cc2ccco2)c(=O)[nH]c1=O | microsomal CLint (in vitro [5]; liver microsomes): < 3 µL/min/mg
5 | < 2 | – | – | O=C(O)c1cc(=O)c2ccccc2o1 [CHROMOCARB] | –
6 | 5.8 | – | 0.01 | Cc1ccc(S(=O)(=O)NC(=O)NN2CCCCCC2)cc1 [TOLAZAMIDE] | –
7 | 2.5 | – | – | CCCc1c2nccc(Cl)c2cc2c(=O)cc(C(=O)O)oc12 | –
8 | 8.42 | – | 1.05 | CC1=NS(=O)(=O)c2cc(Cl)ccc2N1 [DIAZOXIDE] | –
9 | 3.5 | – | – | O=C(O)c1ccc(CN2CCC(CN3CCC(Oc4ccc(Cl)c(Cl)c4)CC3)CC2)cc1 | microsomal CLint (in vitro [5]; liver microsomes): < 3 µL/min/mg
10 | 5.2 | 0.013 | 1.5 | CS(=O)(=O)NC(=O)CCCc1c(-c2ccc(F)cc2)[nH]c2ccc(C#N)cc12 | hepatocyte CLint (in vitro [9]): 14.3 µL/min/1e6 cells; microsomal CLint (in vitro [5]; microsomes): < 3 µL/min/mg
11 | 3.1 | – | – | C[C@@H](C(=O)NS(C)(=O)=O)c1ccc(OS(=O)(=O)C(F)(F)F)cc1 [LADARIXIN] | hepatocyte CLint (in vitro [9]): < 3 µL/min/1e6 cells; microsomal CLint (in vitro [5]; liver microsomes): < 3 µL/min/mg
12 | 6.8 | – | – | CCOC(=O)N1CCC(c2cc(=O)n(-c3ccccc3)[nH]2)CC1 | –
13 | 4.4 | – | – | Cn1c(=O)c2nn[nH]c2n(C)c1=O | –
14 | 3.4 | 0.105 | 1.71 | Cc1ccccc1S(=O)(=O)NC(=O)N1CCC(N2CCC(Oc3ccc(Cl)c(Cl)c3)CC2)CC1 | –
15 | 3.32 | – | – | CC1(C)S[C@@H]2[C@H](NC(=O)Cc3ccccc3)C(=O)N2[C@H]1C(=O)O [PENICILLIN G] | –
16 | 4.7 | 0.035 | 0.92 | CCC(CC)NC(=O)c1c(C)nn(C(C)C)c1NS(=O)(=O)c1ccc(C)cc1 | fraction unbound at 5 h (in vitro [1]): 0.089

Row | pKa (physchem [6]) | fraction unbound at 5 h (in vitro [7]; PPB) | logD (physchem [8]) | Structure (SMILES) | other results
17 | 6.1 | 0.0017 | 1.7 | CN(C)c1ccc(S(=O)(=O)NC(=O)N2CCC(N3CCC(Oc4ccc(Cl)c(Cl)c4)CC3)CC2)cc1 | microsomal CLint (in vitro [5]; liver microsomes): 10.5 µL/min/mg
18 | 7.7 | 0.0027 | 3.9 | O=C(Nc1ccc([N+](=O)[O-])cc1O)Nc1ccccc1Br | –
19 | 5.9 | 0.0146 | 1.95 | N#Cc1ccc2[nH]c(-c3ccc(F)cc3)c(CCCC(=O)NS(N)(=O)=O)c2c1 | hepatocyte CLint (in vitro [9]): 19.6 µL/min/1e6 cells; microsomal CLint (in vitro [5]; liver microsomes): < 3 µL/min/mg; solubility thermodynamic (physchem [3]): 26.9 µM (≈ 10.8 µg/mL)
20 | 10 | 0.208 | 2.18 | COCCNc1nc(N)c2nc(O)n(Cc3ccccc3)c2n1 | microsomal CLint (in vitro [5]; liver microsomes): 5.5 µL/min/mg
21 | 4.6 | 0.02 | 1.88 | CCC(CC)n1nc(C)c(C(=O)N[C@@H](C)C(C)(C)C)c1NS(=O)(=O)c1ccc(C)cc1 | fraction unbound at 5 h (in vitro [1]): 0.0818
22 | 4.01 | – | 2.99 | Cn1c(C(=O)O)c(CCCOc2cccc3ccccc23)c2ccccc21 | –
23 | 2.4 | – | – | CC1=NN(C(=O)CCS)C(C(=O)O)S1 (stereo not given) | –
24 | < 2 | – | – | COc1ccc2c(=O)cc(C(=O)O)oc2c1 | –
25 | 3.97 | – | – | Cc1nnc(C(=O)NC(C)(C)c2nc(C(=O)NCc3ccc(F)cc3)c(O)c(=O)n2C)o1 | –
26 | 4 | – | – | O=C(O)c1coc2ccccc2c1=O | –
27 | 2.5 | – | – | O=C(O)c1cc(=O)c2ccccc2[nH]1 [TRANSTORINE] | –
28 | – | 0.0872 | 1.84 | O=C(NCC12CC3CC(CC(C3)C1)C2)c1cc(CN2CCNCC2)ccc1Cl | hepatocyte CLint (in vitro [10]): 4.46 µL/min/1e6 cells; fraction unbound at 5 h (in vitro [1]): 0.062; hepatocyte CLint (in vitro [9]): 4 µL/min/1e6 cells; pKa (physchem [2]): 8.85; microsomal CLint (in vitro [5]; microsomes): 18 µL/min/mg; solubility thermodynamic (physchem [3]): 74.1 µM (≈ 29.8 µg/mL); fraction unbound at 5 h (in vitro [4]): 0.157
29 | 3.3 | 0.0072 | 0.46 | CCC(CC)NC(=O)c1nnn(-c2ccccc2)c1NS(=O)(=O)c1ccc(C)cc1 | hepatocyte CLint (in vitro [9]): 56 µL/min/1e6 cells; microsomal CLint (in vitro [5]; liver microsomes): 35 µL/min/mg
30 | 6.29 | – | – | Nc1ccc(S(=O)(=O)Nc2ncccn2)cc1 [SULFADIAZINE] | –
31 | 3.87 | 0.0005 | – | O=C(O)CCc1nc(-c2ccccc2)c(-c2ccccc2)o1 [OXAPROZIN] | fraction unbound at 5 h (in vitro [1]): 0.0024

Row | Structure (SMILES) | pKa (physchem [6]) | fraction unbound at 5 h (in vitro [7]; PPB) | logD (physchem [8]) | other results
32 | CC(=O)Nc1ccc(O)cc1 [ACETAMINOPHEN] | 9.48 | – | 0.25 | fraction unbound at 5 h (in vitro [7]): 0.734
33 | Cc1ccc(S(=O)(=O)Nc2c(C(=O)N[C@@H](C)C(C)(C)C)c(C)nn2C(C)(C)C)cc1 | 5.5 | – | 1.84 | microsomal CLint (in vitro [5]; microsomes): 37 µL/min/mg; solubility thermodynamic (physchem [3]): 513 µM (≈ 223 µg/mL)
